Results on four compounds are retold here after the NIST ThermoML archive (doi:10.1016/j.tca.2009.09.001).

Data set [1] is described as follows: Molar enthalpy of transition or fusion. Conditions: Crystal; DSC.
The conditions of data set [2]: Crystal; DTA.

The structures appear in SMILES notation. Numbers after ± are expanded uncertainties.

In the case of `O[C@@H]1CCCC[C@H]1O` (relative stereo) [trans-1,2-cyclohexanediol], the “Molar enthalpy of transition or fusion” value in data set [1] was 8.22 ± 0.239 kcal/mol. For the same compound, the Normal melting temperature in data set [2] came out at 99 ± 1 °C.

As to `O[C@H]1CCCC[C@@H]1O` [1,2-cyclohexanediol, (1S,2S)-], the “Molar enthalpy of transition or fusion” value in data set [1] was 3.59 ± 0.12 kcal/mol. Also, in data set [2], the Normal melting temperature stood at 104 ± 1 °C.

For the compound `O[C@@H]1CCCC[C@H]1O` [(1R,2R)-1,2-cyclohexanediol], in data set [1], the “Molar enthalpy of transition or fusion” value came out at 4.3 ± 0.143 kcal/mol. For the same compound, the Normal melting temperature in data set [2] worked out at 108 ± 1 °C.

On to `O=C(O)[C@H](O)[C@@H](O)C(=O)O` [(2R,3R)-2,3-dihydroxybutanedioic acid], for which the “Molar enthalpy of transition or fusion” value in data set [1] stood at 5.35 ± 0.167 kcal/mol. Also, the Normal melting temperature in data set [2] was determined as 171 ± 1 °C.
